Assay results as given in US9802880B2, “Cannabigerol derivatives” (VIVACELL BIOTECHNOLOGY ESPAÑA S.L., priority 2014, dated 2017).

Key:
PPARg [1] = experiment: PPARg transactivation assay in human dermal primary fibroblasts; format: cell-based; details: 6 h treatment, FIG. 2
Source text: FIG. 2. PPARg Transactivation Assays in Human Dermal Primary Fibroblasts.

N2a cells = experiment: Neuroprotection assay, glutamate-induced excitotoxicity in N2a cells; format: cell-based; details: 1 h pre-incubation, then 5 mM glutamate 24 h, FIG. 5
Method: N2a cells were pre-incubated for 1 h with compounds (II) to (V) and (XII) at the indicated concentrations. Then, cells were treated for 24 h with 5 mM glutamate to induce excitotoxicity, or cytotoxicity in neuronal cells induced by neurotransmitters. Cell viability was quantified by MTT assay. […] Control was set as 100% and data were referred to that value.
Cultured N2A cells were pre-incubated with the compounds II, III, IV, V and XII at the indicated concentrations for 1 h and then treated with 5 mM glutamate to induce excitotoxicity during 24 h (FIG. 5). Cytotoxicity was determined by the MTT method as described in example 3. Results are shown as mean±S.D. from at least three independent experiments, and expressed as percentage of cell viability against the control sample (−). Control was set as 100% and data were referred to that value.

[2] = test system: Ccl2, iNOs, TNFα, IFNg, IL-1b and IL-17; experiment: EAE, pro-inflammatory gene expression in spinal cord (real-time PCR); format: in vivo, C57BL/6 mice; details: EAE mice, 10 mg/kg, vs EAE+vehicle, FIG. 7
Method: Gene expression of inflammatory markers including CCL2, IFNγ, INOS, TNFα, IL-1β and IL-17 in the spinal cord was down regulated in EAE+compound (III) (10 mg/kg) group compared with EAE+Vehicle mice. Expression levels were calculated using the 2^−ΔΔct method.
EAE was induced in female C57BL/6 mice at 6-8 weeks of age by subcutaneous immunization with myelin oligodendrocyte glycoprotein polypeptide (MOG35-55) (300 μg) and 200 μg of Mycobacterium tuberculosis (H37Ra Difco, Franklin Lakes, N.J., USA) in a 1:1 mix with […] Freund's adjuvant (CFA, Sigma-Aldrich, Madrid, Spain). […] The mice were examined daily for clinical signs of EAE and disease scores were measured as follows: 0, no disease; 1, limp tail; 2, limp tail and hind limb weakness; 3, hind limb paralysis; 4, hind limb and front limb paralysis; 5, moribund and death. […]
Total RNA was isolated from striata (3NP model) or spinal cord (EAE model) using RNeasy Lipid Tissue Mini Kit (Qiagen, GmbH). The total amount of RNA extracted was quantitated by spectrometry at 260 nm and its purity from the ratio between the absorbance values at 260 and 280 nm. […] The iQ™ SYBR Green Supermix (Bio-Rad) was used to quantify mRNA levels for COX-2, TNF-α, IL-6, IL-17, IL-1β, IFN-γ, CCL-2 or iNOS depending on disease's model. […] Expression levels were calculated using the 2^−ΔΔct method.

3NP-lesioned mice = experiment: Huntington's disease 3NP model, behavioral score; format: in vivo, C57BL/6 mice; details: 10 mg/kg i.p., four injections, FIG. 9
Method: Mice were subjected to behavioral tests for determining their neurological status after the treatment with compounds I (10 mg/kg) (A), III (10 mg/kg) (B) and XII (10 mg/kg) (C). Hind limb clasping, Locomotor activity, Hind limb dystonia and Truncal Dystonia were rated from 0 to 2 based on severity: a score of 0 typically indicates normal function and 2 seriously affected. Values are expressed as means±SEM for 8 animals per group.
Lesions of the striatum were induced with 3-NP in adult (16 week old; 30 g) male C57BL/6 mice (Harlan Ibérica, Barcelona, Spain). To this end, mice were subjected to seven intraperitoneal (i.p.) injections of 3NP (one injection each 12 hours) at a dose of 50 mg/kg (prepared in phosphate-buffered saline) for 3 days. These animals and their respective non-lesioned controls were used for pharmacological studies with compounds CBG-Q (compound I) and with compounds III and XII (FIG. 9). At least 6-8 animals were used per experimental group. Treatments consisted of four i.p. injections of the compounds at the indicated doses (one injection each 24 hours), or vehicle (DMSO 0.2%, BSA 5% in PBS) 30 min before the injections of 3NP. All animals were euthanized 12 hours after the last 3NP injection. Once euthanized, animals were dissected and their brains were rapidly removed. The right hemisphere was used to dissect the striatum, which was quickly frozen in RNAlater (Sigma-Aldrich, Germany) to analyzed inflammatory markers were by Real Time PCR. The left hemisphere was fixed in fresh 4% paraformaldehyde (in 0.1M phosphate buffered-saline) for 48 hours at 4° C. and embedded in paraffin wax for histological analysis. Mice were subjected to behavioral tests for determining their neurological status. We evaluated the general locomotor activity, the hindlimb clasping and dystonia, and the truncal dystonia. All behavioral tests were conducted prior to drug injections to avoid acute effects of the compounds under investigation.

PPARg [3] = test system: PPARg
PPARg [4] = experiment: PPARg transactivation assay in HEK-293 cells (GAL4-PPARγ / GAL4-luc); details: HEK-293 cells, 6 h treatment, FIG. 1

For `CCCCCC1=C(NCC)C(=O)C(C/C=C(\C)CCC=C(C)C)=C(O)C1=O` [Compound III, 6-(3,7-dimethyl-octa-2,6-dienyl)-5-hydroxy-3-pentyl-2-ethylamino-[1,4]benzoquinone], which “PPARg activation (fold) compared with CBG-Q” value (PPARg [1]) is on record?
The value was “higher efficiency than CBG-Q”.

What about the “protection from glutamate-induced cytotoxicity (cell viability, MTT)” value (N2a cells) of the same molecule?
Its value is “protect neuronal cells from glutamate-induced apoptosis”.

What about the “expression of proinflammatory genes Ccl2, iNOs, TNFα, IFNg, IL-1b and IL-17 in the spinal cord” value [2] of the same molecule?
Its value is “significant decrease”.

What about the “clinical symptoms induced by 3-NP intoxication (hind limb clasping, locomotor activity, hind limb dystonia, truncal dystonia)” value (3NP-lesioned mice) of the same molecule?
The value was “clearly alleviates such symptomatology”.

What about the “PPARg transactivation (luciferase activity, fold induction over untreated cells)” value (PPARg [3]) of the same molecule?
The value was “most active compounds”.

What about the “PPARg activation (fold) compared with CBG-Q” value (PPARg [4]) of the same molecule?
The value was “higher efficiency than CBG-Q”.
